Laboratory results reported in patent publication US20250289844A1, “TREATMENT OF GM1 DEFICIENCIES” (Seneb BioSciences, Inc., priority 2022, published 2025).

Assays:
[1] = system: GM2 synthase deficient mice; test: Minimum effective dose and motor/cognitive function, ganglioside replacement therapy in GM2 synthase deficient mice; format: in vivo
Method: FIG. 14. Motor and Cognitive function of GM2 synthase deficient mice (heterozygotes; HT and homozygotes; KO; 200-300 day old) treated with either saline (Sal) or GM1 (d18:1, C18:0) (30 mg/Kg, intraperitoneal, once daily) and compared to age matched controlled wild type mice (WT). FIG. 14A. Mouse grip strength, and FIG. 14B. Mouse cognitive function (T-maze), were assessed after 3 weeks of dosing.
FIG. 27. Minimum effective dose. Motor function of GM2 synthase deficient mice (heterozygotes; HT, 200-300 day old) treated with GM1(d18:1, C18:0) (intraperitoneal, once daily). FIG. 27A. Mouse grip strength, FIG. 27B. Adhesive removal, and FIG. 27C. Pole climbing.
(§1) The minimum effective dose of GM1 of the invention was 5 mg/kg (IP, once daily) when administered as ganglioside replacement therapy in ganglioside deficient mice FIG. 27. […] The predicted therapeutic human dose based on allometric scaling of all animal and human data is predicted to be 2-10 mg/Kg administered daily as a parenteral (e.g., subcutaneous, intraperitoneal, intramuscular). In an exemplary embodiment, the therapeutically effective amount is from about 2 to about 10 mg per kg of body weight per dosage. In an exemplary embodiment, the dose of the GM1 formulation is administered parenterally once daily.

[2] = system: GM3 synthase deficient mice; test: Motor and cognitive function, ganglioside replacement therapy in GM3 synthase deficient mice; format: in vivo; settings: 5 mg/kg IP once daily; GM3 synthase deficient mice (knock-outs and heterozygotes)
Method: FIG. 15. Motor and Cognitive function of GM3 synthase deficient mice (heterozygotes; HT and homozygotes; KO; 7-10 months old) treated with either saline (Sal) or GM1 (d18:1, C18:0) (30 mg/Kg, intraperitoneal, once daily for 3 weeks) and compared to age matched controlled wild type mice (WT). FIG. 15A. Grip Duration, FIG. 15B. Beam Transversal, and FIG. 15C. Short-term memory impairment (T-maze).
as §1

[3] = system: Huntington's disease YAC128 mice; test: Motor function (rotarod, narrow beam) in Huntington's disease YAC128 mice; format: in vivo; settings: Alzet pump, intracerebral ventricular injection
Method: FIG. 25. Improvement of motor function in Huntington's disease YAC128 mice after ganglioside replacement therapy using ganglioside compositions of the invention. Mice were administered GM1 using an Alzet pump and intracerebral ventricular injection. FIG. 25A. […] FIG. 25B. […] WT mice treated with GM1 (□), solid line; WT mice treated with cerebral spinal fluid (▪) hashed line; YAC128 Huntington's disease mice treated with cerebral spinal fluid (⋄) hashed line; YAC128 Huntington's disease mice treated with GM1 (♦) solid line.
In still other embodiments, gangliosides and other compounds of the invention can be used as a therapeutic to treat Huntington's disease caused by a deficiency of one or more ganglioside species, e.g., GM3, GM2 and/or GM1, FIGS. 20 and 24 (Di Pardo (2016) Front. Neurosci. 10:457). In some embodiments, the ganglioside deficiency is caused by reduced or missing enzyme activity and/or expression selected from GM3 synthase (ST3Gal5), GM2 synthase (B4GalNT1) and GM1 synthase (B3GalT4), FIG. 24 (Desplats (2007) Neurobiol. Dis. 27(3): 265-277). In another preferred embodiment, the ganglioside deficiency encompasses reduced amounts or missing ganglioside selected from GM3, GM2 and/or GM1. […]

[4] = Formulation / solubility of GM1 in water or buffer; format: physicochemical; settings: 50 to 500 mg/mL
Method: (§2) FIG. 26. Solubility of GM1 of the Invention and Pharmacokinetics of different formulations of GM1 in Sprague Dawley after subcutaneous administration at a dose of 30 mg/Kg. GM1 was formulated at different GM1 concentrations from 50 mg/mL to 500 mg/mL in water or buffer with or without excipients and cosolvents.
(§3) Example 4. Formulation of GM1. Water or buffer solutions were added to GM1 and the suspension stirred until the GM1 was completely dissolved. […] Concentrations of solutions of GM1 prepared by this method included 50 mg/mL, 100 mg/mL, 200 mg/mL, 300 mg/mL, 400 mg/mL and 500 mg/mL. Formulations containing phosphate buffer 0-15 mM (pH 7.0-7.4) were also used and various excipients added including arginine (60-100 mM) and sodium chloride (0-137 mM) (FIG. 26).

[5] = Stability of GM1 formulations at room temperature; format: physicochemical; settings: water or phosphate buffer 0-15 mM pH 7.0-7.4, arginine 60-100 mM, sodium chloride 0-137 mM
Method: as §3

[6] = Pharmacokinetics of formulated GM1 after subcutaneous administration; format: in vivo; settings: Sprague Dawley rats, 30 mg/Kg, all GM1 concentrations tested
Method: as §2
Example 5. Pharmacokinetics of Formulated GM1. The formulated GM1 was administered, subcutaneously, to Sprague Dawley rats and the pharmacokinetics determined (FIG. 26). The plasma GM1 levels returned to normal after 72 hours for all GM1 concentrations tested.

[7] = vendor or literature description; cited from earlier work

appearance of solution [4]: clear, colorless and non-opaque solution
stability of formulations [5]: stable at room temperature for months
time after which plasma GM1 levels returned to normal [6]: 72 h
SMILES: CCCCCCCCCCCCC/C=C/C(O)C(CO[C@@H]1O[C@H](CO)[C@@H](O[C@@H]2O[C@H](CO)[C@H](O[C@@H]3O[C@H](CO)[C@H](O)[C@H](O[C@@H]4O[C@H](CO)[C@H](O)[C@H](O)[C@H]4O)[C@H]3NC(C)=O)[C@H](O[C@]3(C(=O)O)C[C@H](O)[C@@H](NC(C)=O)[C@@H](C(O)C(O)CO)O3)[C@H]2O)[C@H](O)[C@H]1O)NC(=O)CCCCCCCCCCCCCCCCC (stereo partly drawn) [GM1, GM1 (d18:1/C18:0)]
motor and cognitive deficits ([1]; 5 mg/kg IP once daily, GM2 synthase deficient mice (knock-outs and heterozygotes)): reversing motor and cognitive deficits
minimum effective dose ([1]; IP, once daily, ganglioside replacement therapy in ganglioside deficient mice (FIG. 27: grip strength, adhesive removal, pole climbing)): 5 mg/kg
motor and cognitive deficits [2]: reversing motor and cognitive deficits
rotarod motor function ([3]; FIG. 25A): Improved rotarod motor function
narrow beam motor function ([3]; FIG. 25B): Improved narrow beam motor function
solubility in water [7]: effectively no solubility in water
